The values that follow come from patent US6410483B1, “Phenylsulfonylureas, processes for their preparation, and their use as herbicides and plant growth regulators” (Hoechst Schering AgrEvo GmbH, priority 1997, dated 2002).

Molecules are shown by their SMILES.

Take `COC(=O)NCCc1ccc(C(=O)OC)c(S(=O)(=O)NC(=O)Nc2nc(OC)cc(OC)n2)c1` [Example A5, Methyl 2-[(4,6-Dimethoxypyrimidin-2-yl)aminocarbonylaminosulfonyl]-4-[2-(methoxycarbonylamino)ethyl]benzoate]: the melting point was 165 to 169 °C (dec.).

Broadly, the melting point is the temperature, or range, at which the solid turns liquid.
